The values below come from ChEMBL document CHEMBL6078724, “Discovery of the first examples of right open reading frame kinase 2 (RIOK2) molecular glue degraders” (Eur J Med Chem, 2025).

Calls of active or inactive are those of the source. The calls are words filed in the database; no cut-off is given here. A value given as a limit tells only on which side of the number the result lay.

The subject of one data set is U-937. Nature of the data set: Antiproliferative activity against human U-937 cells incubated for 72 hrs by CCK8 assay. Format: functional, cell-based. Conditions: U-937, 72 h. In general terms: Tetrazolium assays rely on reduction of a dye to a coloured formazan, in cell work by metabolically active cells.
The subject of data set [1] is MOLT-4. As to the kind of experiment: Antiproliferative activity against human MOLT-4 cells incubated for 72 hrs by CCK8 assay. Format: functional, cell-based. Conditions: MOLT-4, 72 h.
The next data set deals with HL-60. As to the kind of experiment: Antiproliferative activity against human HL-60 cells incubated for 72 hrs by CCK8 assay. Format: functional, cell-based. Conditions: HL-60, 72 h.
The next data set relates to K562. Nature of the data set: Antiproliferative activity against human K562 cells incubated for 72 hrs by CCK8 assay. Conditions: K562, 72 h. Format: functional, cell-based.
Another data set deals with OCI-Ly3. Nature of the data set: Antiproliferative activity against human OCILY3 cells incubated for 72 hrs by CCK8 assay. Format: functional, cell-based. Conditions: OCI-Ly3, 72 h.
A further data set concerns ASPC1. As to the kind of experiment: Antiproliferative activity against human ASPC1 cells incubated for 72 hrs by CCK8 assay. Format: functional, cell-based. Conditions: ASPC1, 72 h.
The subject of the next data set is A549. Nature of the data set: Antiproliferative activity against human A549 cells incubated for 72 hrs by CCK8 assay. Format: functional, cell-based. Conditions: A549, 72 h.
For a further data set, the system named is HeLa. As to the kind of experiment: Antiproliferative activity against human HeLa cells incubated for 72 hrs by CCK8 assay. Format: functional, cell-based.
A short description of data set [2]: Antiproliferative activity against HEK293 cells incubated for 72 hrs by CCK8 assay. Format: toxicity, cell-based. Conditions: human.
A short description of data set [3]: Antiproliferative activity against mouse NIH3T3 cells incubated for 72 hrs by CCK8 assay. Format: toxicity, cell-based.
The nature of data set [4]: Antiproliferative activity against human MRC5 cells incubated for 72 hrs by CCK8 assay. Format: toxicity, cell-based.
The target of data set [5] is T1, E3 ubiquitin-protein ligase RNF126/Serine/threonine-protein kinase RIO2 (Homo sapiens, UniProt Q9BVS4+Q9BV68). Nature of the data set: Molecular glue degradation activity at RNF126/RIOK2 in human MOLT-4 cells assessed as decrease in mTOR level at 500 nM incubated for 12 hrs by immunoblot analysis. Format: cell-based.
Target sequence in this assay (Q9BV68 2-311 partner limits assumed): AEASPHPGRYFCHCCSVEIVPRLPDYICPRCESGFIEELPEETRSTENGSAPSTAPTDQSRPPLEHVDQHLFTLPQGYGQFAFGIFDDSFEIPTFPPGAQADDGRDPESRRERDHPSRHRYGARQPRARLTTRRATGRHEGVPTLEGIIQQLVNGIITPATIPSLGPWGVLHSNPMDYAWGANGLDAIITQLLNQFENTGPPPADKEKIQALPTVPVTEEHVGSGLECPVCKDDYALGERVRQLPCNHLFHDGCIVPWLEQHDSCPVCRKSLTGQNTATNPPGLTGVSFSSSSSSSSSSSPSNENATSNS
Target sequence in this assay (Q9BVS4 whole entry): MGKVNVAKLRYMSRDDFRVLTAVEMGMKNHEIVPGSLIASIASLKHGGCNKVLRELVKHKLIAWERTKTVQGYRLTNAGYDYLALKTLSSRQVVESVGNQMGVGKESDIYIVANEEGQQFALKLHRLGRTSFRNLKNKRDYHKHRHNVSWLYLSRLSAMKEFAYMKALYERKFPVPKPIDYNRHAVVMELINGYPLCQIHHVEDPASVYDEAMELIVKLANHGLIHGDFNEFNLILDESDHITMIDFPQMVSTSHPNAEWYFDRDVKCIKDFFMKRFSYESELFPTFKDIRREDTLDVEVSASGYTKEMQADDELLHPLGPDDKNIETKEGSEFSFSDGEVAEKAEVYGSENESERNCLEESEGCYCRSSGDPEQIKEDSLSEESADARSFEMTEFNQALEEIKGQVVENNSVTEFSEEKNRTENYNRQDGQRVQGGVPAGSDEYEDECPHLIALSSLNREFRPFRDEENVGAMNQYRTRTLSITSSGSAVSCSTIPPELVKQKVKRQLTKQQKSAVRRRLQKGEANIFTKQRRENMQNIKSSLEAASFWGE
Data set [6] addresses T1, E3 ubiquitin-protein ligase RNF126/Serine/threonine-protein kinase RIO2. As to the kind of experiment: Molecular glue degradation activity at RNF126/RIOK2 in human MOLT-4 cells assessed as decrease in AKT level at 500 nM incubated for 12 hrs by immunoblot analysis. Format: cell-based.
Target sequence in this assay (Q9BV68 2-311 partner limits assumed): as the sequence (Q9BV68 2-311 partner limits assumed) above
Target sequence in this assay (Q9BVS4 whole entry): as the sequence (Q9BVS4 whole entry) above
For data set [7], the system named is MOLT-4. Nature of the data set: Induction of cell cycle arrest in human MOLT-4 cells assessed as accumulation at G2/M phase at 900 nM incubated for 24 hrs by PI staining based flow cytometry relative to control. Format: functional. (In general: In flow cytometry, cells or beads pass a laser one at a time.)
The test system of data set [8] is MOLT-4. Nature of the data set: Induction of apoptosis in human MOLT-4 cells at 900 nM incubated for 48 hrs by Annexin V-FITC/PI staining based flow cytometry relative to control. Format: functional.
The target in data set [9] is T1, E3 ubiquitin-protein ligase RNF126/Serine/threonine-protein kinase RIO2. Nature of the data set: Molecular glue degradation activity at RNF126/RIOK2 in human MOLT-4 cells assessed as induction protein degradation incubated for 12 hrs by immunoblot analysis. Format: cell-based. For orientation: A western blot detects proteins with antibodies after separation by electrophoresis.
Target sequence in this assay (Q9BVS4 whole entry): as above
Target sequence in this assay (Q9BV68 whole entry): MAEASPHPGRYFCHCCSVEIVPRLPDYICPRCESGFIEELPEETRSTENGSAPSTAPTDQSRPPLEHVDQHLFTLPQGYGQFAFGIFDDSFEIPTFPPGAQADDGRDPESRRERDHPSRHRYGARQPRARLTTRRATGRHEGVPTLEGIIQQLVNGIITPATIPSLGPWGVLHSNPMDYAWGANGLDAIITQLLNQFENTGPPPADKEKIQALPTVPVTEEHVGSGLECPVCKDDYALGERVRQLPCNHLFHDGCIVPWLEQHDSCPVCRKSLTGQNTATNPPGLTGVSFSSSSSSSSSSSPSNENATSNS

Data set [10] has the same target. As to the kind of experiment: Molecular glue degradation activity at RNF126/RIOK2 in human MOLT-4 cells assessed as induction protein degradation incubated for 12 hrs by immunoblot analysis relative to control. Format: cell-based.
Target sequence in this assay (Q9BV68 2-311 partner limits assumed): as the sequence (Q9BV68 2-311 partner limits assumed) above
Target sequence in this assay (Q9BVS4 whole entry): as the sequence (Q9BVS4 whole entry) above
Data set [11] has as its target Serine/threonine-protein kinase RIO2 (Homo sapiens, UniProt Q9BVS4). As to the kind of experiment: Binding affinity to RIOK2 (unknown origin) assessed as dissociation constant.

A word on the IC50: it is the midpoint of a concentration-inhibition curve. The DC50 is the midpoint of the concentration-degradation curve. As usually defined, the Emax is the maximal effect, on the per cent scale that the assay sets. One may read the Kd as a measure of binding affinity in units of concentration.

Chain of Serine/threonine-protein kinase RIO2 (Q9BVS4 whole entry): as above

Take `COc1ccc(-c2ccc3[nH]c(=O)c4nnn(-c5ccc(N6CCNCC6)c(C(F)(F)F)c5)c4c3c2)cn1`: the IC50 in the data set on U-937 is 1.84 µM; with MOLT-4 [1], 1.26 µM; with HL-60, 1.21 µM; with K562, 2.03 µM; in the data set on OCI-Ly3 it was 0.52 µM; with ASPC1, 2.43 µM. The IC50 turned out to be 2.55 µM in the data set on A549 and 1.23 µM in the data set on HeLa. Also, the results for the IC50 at 72 h in data set [2], in data set [3] and in data set [4] were 1.94 µM, 2.84 µM and 1.31 µM, respectively. Moreover, the result in [5] and in data set [6] was inactive. Further, the Activity amounted to 29.84% in the data set with MOLT-4 [7] and 8.03% in the data set with MOLT-4 [8].
For the molecule `COc1ccc(-c2ccc3[nH]c(=O)c4nnn(-c5ccc(N6CCN(C(=O)/C=C/C(=O)c7ccc(Cl)cc7)CC6)c(C(F)(F)F)c5)c4c3c2)cn1`, the DC50 in data set [9] was found to be 1.54 µM. Also, the Emax in [10] was 75.1%.
Consider `COc1ccc2cc([C@H](C)C(=O)Nc3cc(C)ccn3)ccc2c1`, for which, in data set [11], the Kd turned out to be 0.52 µM.
Consider `COc1ccc(-c2ccc3[nH]c(=O)c4nnn(-c5ccc(N6CCN(C(=O)/C=C/C(=O)c7ccc(OC(F)F)cc7)CC6)c(C(F)(F)F)c5)c4c3c2)cn1`, for which, in data set [9], the DC50 was 1.18 µM. The Emax in [10] was 68.9%.
Consider `COc1ccc(-c2ccc3[nH]c(=O)c4nnn(-c5ccc(N6CCN(C(=O)/C=C/C(=O)c7ccc([N+](=O)[O-])cc7)CC6)c(C(F)(F)F)c5)c4c3c2)cn1`, for which, in data set [9], the DC50 was 3.8 µM. Besides, in [10], the Emax was 68.1%.
With `COc1ccc(/C=C/C(=O)N2CCN(c3ccc(-n4nnc5c(=O)[nH]c6ccc(-c7ccc(OC)nc7)cc6c54)cc3C(F)(F)F)CC2)cc1`, the DC50 in [9] was over 10 µM.
As for `COc1ccc(-c2ccc3[nH]c(=O)c4nnn(-c5ccc(N6CCN(C(=O)/C=C/C(=O)c7ccccc7OC)CC6)c(C(F)(F)F)c5)c4c3c2)cn1`, in data set [9], the DC50 was 0.79 µM. In data set [10], the Emax worked out at 74.1%.
In the case of `COc1ccc(-c2ccc3[nH]c(=O)c4nnn(-c5ccc(N6CCN(C(=O)C7=CCCC7)CC6)c(C(F)(F)F)c5)c4c3c2)cn1`, in data set [9], the DC50 was 2.14 µM. The Emax in data set [10] was 82.2%.
For the molecule `COc1ccc(-c2ccc3[nH]c(=O)c4nnn(-c5ccc(N6CCN(C(=O)/C=C/C(=O)c7ccccc7F)CC6)c(C(F)(F)F)c5)c4c3c2)cn1`, the DC50 in data set [9] worked out at 3.65 µM. Further, the Emax in data set [10] was determined as 62.8%.
As to `CCOc1ccc(C(=O)/C=C/C(=O)N2CCN(c3ccc(-n4nnc5c(=O)[nH]c6ccc(-c7ccc(OC)nc7)cc6c54)cc3C(F)(F)F)CC2)cc1`, the 50% degradation concentration (DC50) in data set [9] amounted to 1.28 µM. For the same molecule, the Emax in [10] came to 70.6%.
On to `COc1ccc(-c2ccc3[nH]c(=O)c4nnn(-c5ccc(N6CCN(C(=O)/C=C/C(=O)c7ccc(C)cc7)CC6)c(C(F)(F)F)c5)c4c3c2)cn1`, for which the 50% degradation concentration (DC50) in data set [9] came to 1.47 µM. In addition, in data set [10], the Emax turned out to be 72.3%.
Take `COc1cccc(C(=O)/C=C/C(=O)N2CCN(c3ccc(-n4nnc5c(=O)[nH]c6ccc(-c7ccc(OC)nc7)cc6c54)cc3C(F)(F)F)CC2)c1`: the DC50 in [9] is 1.05 µM. For the same molecule, the Emax in data set [10] came to 68.4%.
`COc1ccc(-c2ccc3[nH]c(=O)c4nnn(-c5ccc(N6CCN(C(=O)/C=C/C(=O)c7ccc(F)c(F)c7)CC6)c(C(F)(F)F)c5)c4c3c2)cn1`: the DC50 in [9] was found to be 0.98 µM. For the same molecule, in data set [10], the maximal effect (Emax) came to 77.3%.
In the case of `COc1ccc(C(=O)/C=C/C(=O)N2CCN(c3ccc(-n4nnc5c(=O)[nH]c6ccc(-c7ccc(OC)nc7)cc6c54)cc3C(F)(F)F)CC2)cc1`, the DC50 in data set [9] amounted to 0.69 µM. Also, in data set [10], the Emax amounted to 60.1%.
In the case of `COc1ccc(-c2ccc3[nH]c(=O)c4nnn(-c5ccc(N6CCN(C(=O)/C=C/C(=O)c7ccccc7)CC6)c(C(F)(F)F)c5)c4c3c2)cn1`, the DC50 in data set [9] stood at 1.1 µM. Moreover, the Emax in data set [10] stood at 82.2%.
For `COc1ccc(-c2ccc3[nH]c(=O)c4nnn(-c5ccc(N6CCN(C(=O)/C=C/C(=O)c7ccc(OC)c(OC)c7)CC6)c(C(F)(F)F)c5)c4c3c2)cn1` the same measures were 1.95 µM and 65%.
As to `COc1ccc(-c2ccc3[nH]c(=O)c4nnn(-c5ccc(N6CCN(C(=O)/C=C/C(=O)c7ccc(OC(F)(F)F)cc7)CC6)c(C(F)(F)F)c5)c4c3c2)cn1`, the DC50 in [9] was determined as 1.75 µM. Also, the Emax in data set [10] was 84.5%.
Take `COc1ccc(-c2ccc3[nH]c(=O)c4nnn(-c5ccc(N6CCN(C(=O)CCC(=O)c7ccc(F)cc7)CC6)c(C(F)(F)F)c5)c4c3c2)cn1`: the 50% degradation concentration (DC50) in [9] is over 10 µM.
Take `COc1ccc(-c2ccc3[nH]c(=O)c4nnn(-c5ccc(N6CCN(C(=O)/C=C/C(=O)c7ccc(OC(C)C)cc7)CC6)c(C(F)(F)F)c5)c4c3c2)cn1`: the DC50 in data set [9] turned out to be 1.07 µM. In addition, in data set [10], the maximum response (Emax) came to 66.1%.
Turning to `COc1ccc(-c2ccc3[nH]c(=O)c4nnn(-c5ccc(N6CCN(C(=O)/C=C/C(=O)c7ccc(Br)cc7)CC6)c(C(F)(F)F)c5)c4c3c2)cn1`, the DC50 in [9] stood at 2.18 µM. Moreover, the Emax in data set [10] came to 70.1%.
In the case of `COc1ccc(-c2ccc3[nH]c(=O)c4nnn(-c5ccc(N6CCN(C(=O)/C=C/c7ccc(C(F)(F)F)cc7)CC6)c(C(F)(F)F)c5)c4c3c2)cn1`, in data set [9], the DC50 was over 10 µM.
In the case of `C=CC(=O)N1CCN(c2ccc(-n3nnc4c(=O)[nH]c5ccc(-c6ccc(OC)nc6)cc5c43)cc2C(F)(F)F)CC1`, the DC50 in [9] was 4.31 µM. Further, the Emax in data set [10] is 81.4%.
As to `COc1ccc(-c2ccc3[nH]c(=O)c4nnn(-c5ccc(N6CCN(C(=O)/C=C/C(=O)c7ccc(C(F)(F)F)cc7)CC6)c(C(F)(F)F)c5)c4c3c2)cn1`, the DC50 in data set [9] was found to be 1.03 µM. Moreover, the Emax in data set [10] turned out to be 84.6%.
